Experimental data from paper PMC5458211, “Mitochondrial VDAC1-based peptides: Attacking oncogenic properties in glioblastoma” (Oncotarget, 2017).
Non-standard residues stand in square brackets, D forms with d. Residues, ends and D or L forms follow the SMILES beside them.

How the values were obtained:
Ki-67 = Ki-67 immunohistochemistry of xenograft tumors; format: in vivo, human U-87MG in nude mice; conditions: s.c. U-87MG tumors, 20 μM intra-tumoral, n=5
Procedure: Figure 3 VDAC1-based peptides inhibit tumor growth, cell proliferation, and invasion in a glioblastoma xenograft mice model A. Graphical representation of the xenograft experiment protocol used. U-87MG cells (3×10^6/mouse) were inoculated into male nude mice as described in Materials and Methods available online in Supplemental information. B, C. […] The calculated average tumor volumes are presented as means ± SE (n=5) (* p≤0.05, ** p≤0.01). C. The volume of peptide-treated tumors is presented as % of control for each indicated time. Results = mean ± SE (n=5) (* p≤0.05, ** […]). […] E. Quantitative analysis of Ki-67 positive cells. Results = mean ± SE (n=5) (*** p<0.001). […]
100% DMSO and then diluted 20-fold with sterile DDW into three groups (6 animals/group) and treated every to reach a concentration of 25 mg/ml in a final DMSO third day with DMSO (1.44%), Retro-Tf-D-LP4 (10 concentration of 5%. PLGA (50 mg) was dissolved in mg/kg) or Retro-Tf-D-LP4 (10 mg/kg) encapsulated by acetone (1 ml). […] Tumor volume was analyzed using VivoQuant 2.10 10 ml of aqueous solution containing 1% PVA (w/v). […]
(Calbiochem, UK). […] Band intensities were analyzed xenografts were injected 20 µl per tumor (2 points) every by densitometry using Multi Gauge software (Fujifilm) […]

[1] = test system: primary brain cells (PBCs); experiment: Cell death by PI staining and flow cytometry, primary brain cells; format: cell-based; conditions: mouse PBCs, 6 h at 37°C, serum-free medium, PI staining; Fig 1I-1K
Text: Figure 1 VDAC1-based peptides induce dramatic cell death of several brain tumor-derived cell lines but to lesser extent in primary brain cells A. IHC staining of VDAC1 of human normal brain (n=13) or glioblastoma (n=41) in tissue array slides (Biomax), as described in Materials and methods available online in Supplemental information. Percentages of sections stained at the intensity indicated are shown. […] The VDAC1-derived sequences Δ(1-14)N-terminus and LP4 are in green and pink, respectively. The cell-penetrating peptides Antp and Tf are in orange and blue, respectively. The loop shape of LP4 stabilized by a tryptophan zipper is in purple. The amino acids of Δ(1-14)N-terminus, LP4 and Antp are in the D configuration. The sequences of D-LP4 and Retro-D-LP4 are presented below. C. Immunoblot analysis of VDAC1, HK-I, Bcl-2 and Transferrin receptor (TfR) expression in brain tumor-derived cell lines using specific antibodies, as described in Materials and methods available online in Supplemental information. […] Cells were harvested, washed twice with PBS and cell death was analyzed by propidium iodide (PI) staining and flow cytometry. H. IC50 values (μM) for pepdide inducing cell death as derived from D-G. The results shown correspond to means ± SD (n=3). […] Cells were harvested, washed twice with PBS and cell death was analyzed by PI staining and flow cytometry. […]
Cells (6×10^5 /ml) were incubated in 500 μl serum-free medium with the peptide of interest for 6 h at 37°C in the presence of 5% CO2. The cells were then trypsinized, centrifuged (1500xg, 5 min), washed with PBS and analyzed for cell death using propidium iodide (PI) staining and flow cytometer (Beckton-Dickinson, San Jose, CA) and BD CellQuest Pro software. Apoptotic cell death was also analyzed by PI and annexin V-FITC staining, and by acridine orange and ethidium bromide staining and light microscopy (Olympus LX2-KSP).

Row | SMILES | decrease in Ki-67-positive cell numbers (Ki-67) | cell death in primary brain cells as compared to U-87MG cells [1]
1 | CC[C@@H](C)[C@@H](NC(=O)[C@@H](CCCCN)NC(=O)[C@H](NC(=O)[C@@H](CCC(N)=O)NC(=O)[C@@H](CCCNC(=N)N)NC(=O)[C@@H](CC(C)C)NC(=O)CNC(=O)[C@@H](Cc1ccccc1)NC(=O)CNC(=O)[C@@H](Cc1ccc(O)cc1)NC(=O)CNC(=O)[C@@H](CCCCN)NC(=O)[C@H](NC(=O)[C@@H](Cc1ccccc1)NC(=O)[C@H](NC(=O)[C@@H](CC(=O)O)NC(=O)[C@H](N)CCCNC(=N)N)C(C)C)[C@H](C)O)[C@H](C)CC)C(=O)N[C@H](Cc1c[nH]c2ccccc12)C(=O)N[C@H](Cc1ccccc1)C(=O)N[C@H](CCC(N)=O)C(=O)N[C@H](CC(N)=O)C(=O)N[C@H](CCCNC(=N)N)C(=O)N[C@H](CCCNC(=N)N)C(=O)N[C@H](CCSC)C(=O)N[C@H](CCCCN)C(=O)N[C@H](Cc1c[nH]c2ccccc12)C(=O)N[C@H](CCCCN)C(=O)N[C@H](CCCCN)C(=O)O [D-ΔN-Ter-Antp] (H-[dR][dD][dV][dF][dT][dK]G[dY]G[dF]G[dL][dR][dQ][dI][dK][dI][dW][dF][dQ][dN][dR][dR][dM][dK][dW][dK][dK]-OH; N-terminus and C-terminus assumed) | about 45% | lesser extent
2 | CC[C@H](C)[C@H](NC(=O)[C@H](Cc1ccc(O)cc1)NC(=O)[C@@H]1CCCN1C(=O)[C@H](CCCNC(=N)N)NC(=O)[C@H](Cc1c[nH]cn1)NC(=O)[C@H](CO)NC(=O)[C@H](Cc1c[nH]c2ccccc12)NC(=O)[C@@H](NC(=O)[C@H](Cc1c[nH]c2ccccc12)NC(=O)[C@H](CCC(=O)O)NC(=O)[C@@H](CCCCN)NC(=O)[C@@H](CCCCN)NC(=O)[C@@H](CC(C)C)NC(=O)[C@@H](CCC(=O)O)NC(=O)[C@H](NC(=O)[C@@H](C)NC(=O)[C@H](NC(=O)[C@@H](CC(N)=O)NC(=O)[C@@H](CC(C)C)NC(=O)[C@@H](C)NC(=O)[C@@H](Cc1c[nH]c2ccccc12)NC(=O)[C@H](NC(=O)[C@@H](C)NC(=O)CNC(=O)[C@@H](CC(N)=O)NC(=O)[C@@H](CO)NC(=O)[C@@H](CC(N)=O)NC(=O)[C@H](CCCCN)NC(=O)[C@H](Cc1c[nH]c2ccccc12)NC(=O)[C@@H](NC(=O)[C@H](Cc1c[nH]c2ccccc12)NC(=O)[C@@H](N)CCCCN)[C@@H](C)O)[C@H](C)O)C(C)C)[C@H](C)O)[C@@H](C)O)C(=O)N[C@@H](C)C(=O)N[C@@H](Cc1c[nH]cn1)C(=O)O [Retro-Tf-D-LP4] | – | lesser extent
3 | CC[C@H](C)[C@H](NC(=O)[C@H](C)NC(=O)[C@@H](N)Cc1c[nH]cn1)C(=O)N[C@@H](Cc1ccc(O)cc1)C(=O)N1CCC[C@H]1C(=O)N[C@@H](CCCNC(=N)N)C(=O)N[C@@H](Cc1c[nH]cn1)C(=O)N[C@@H](CO)C(=O)N[C@@H](Cc1c[nH]c2ccccc12)C(=O)N[C@H](C(=O)N[C@@H](Cc1c[nH]c2ccccc12)C(=O)N[C@@H](CCC(=O)O)C(=O)N[C@H](CCCCN)C(=O)N[C@H](CCCCN)C(=O)N[C@H](CC(C)C)C(=O)N[C@H](CCC(=O)O)C(=O)N[C@@H](C(=O)N[C@H](C)C(=O)N[C@@H](C(=O)N[C@H](CC(N)=O)C(=O)N[C@H](CC(C)C)C(=O)N[C@H](C)C(=O)N[C@H](Cc1c[nH]c2ccccc12)C(=O)N[C@@H](C(=O)N[C@H](C)C(=O)NCC(=O)N[C@H](CC(N)=O)C(=O)N[C@H](CO)C(=O)N[C@H](CC(N)=O)C(=O)N[C@@H](CCCCN)C(=O)N[C@@H](Cc1c[nH]c2ccccc12)C(=O)N[C@H](C(=O)N[C@@H](Cc1c[nH]c2ccccc12)C(=O)N[C@@H](CCCCN)C(=O)O)[C@@H](C)O)[C@H](C)O)C(C)C)[C@H](C)O)[C@@H](C)O [Tf-D-LP4] | about 45% | lesser extent
